According to PubChem BioAssay AID248 (DTP/NCI, 2004):
Several values for one entry are separate records, joined by “and”; a condition that tells them apart may be missing. Equal entries are not always repeated. Toxic doses and inconclusive results are not listed. Rule as the data show it: active = T/C of 150% or more; inactive = T/C below 125%.

Tested on: L1210 leukemia ip in BDF1 mice, survival T/C
Assay: NCI In Vivo Anticancer Drug Screen. Data for tumor model L1210 Leukemia (intraperitoneal) in B6D2F1 (BDF1) mice
Details: endpoint: mean survival time, higher = longer survival
Procedure, shortened: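 Transplantable tumor model; survival measured in treated vs vehicle control mice. Value = treated/control.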

[1] = dose: 100.0 mg/kg/injection, schedule: Q01DX001 (ip), vehicle: saline
[2] = dose: 200.0 mg/kg/injection, schedule: Q01DX001 (ip), vehicle: saline
[3] = dose: 400.0 mg/kg/injection, schedule: Q01DX001 (ip), vehicle: saline
[4] = dose: 100.0 mg/kg/injection, schedule: Q04DX003 (ip), vehicle: saline with Tween-80
[5] = dose: 200.0 mg/kg/injection, schedule: Q04DX003 (ip), vehicle: saline with Tween-80
[6] = dose: 100.0 mg/kg/injection, schedule: Q01DX009 (ip), vehicle: saline
[7] = dose: 100.0 mg/kg/injection, schedule: Q04DX003 (ip), vehicle: saline
[8] = dose: 200.0 mg/kg/injection, schedule: Q04DX003 (ip), vehicle: saline
[9] = dose: 400.0 mg/kg/injection, schedule: Q04DX003 (ip), vehicle: saline
[10] = dose: 25.0 mg/kg/injection, schedule: Q04DX002 (ip), vehicle: Klucel (hydroxypropylcellulose) (HPC)
[11] = dose: 50.0 mg/kg/injection, schedule: Q04DX002 (ip), vehicle: Klucel (hydroxypropylcellulose) (HPC)
[12] = dose: 100.0 mg/kg/injection, schedule: Q04DX003 (ip), vehicle: Klucel (hydroxypropylcellulose) (HPC)
[13] = dose: 200.0 mg/kg/injection, schedule: Q04DX003 (ip), vehicle: Klucel (hydroxypropylcellulose) (HPC)
[14] = dose: 400.0 mg/kg/injection, schedule: Q04DX003 (ip), vehicle: Klucel (hydroxypropylcellulose) (HPC)

Measured: T/C

Nc1nc(CO)c(CCCCc2ccccc2)c(=O)[nH]1
inactive: dose: 50.0 mg/kg/injection, schedule: Q01DX001 (ip), vehicle: saline 101 % of control | [1] 101 % of control | [2] 98 % of control | [3] 101 % of control

O=[N+]([O-])c1cc(Br)cc(Br)c1
inactive: dose: 100.0 mg/kg/injection, schedule: Q01DX009 (ip), vehicle: saline with Tween-80 97 % of control | [4] 91 % of control | dose: 200.0 mg/kg/injection, schedule: Q01DX009 (ip), vehicle: saline with Tween-80 99 % of control | [5] 94 % of control | dose: 400.0 mg/kg/injection, schedule: Q01DX009 (ip), vehicle: saline with Tween-80 93 % of control | dose: 400.0 mg/kg/injection, schedule: Q04DX003 (ip), vehicle: saline with Tween-80 93 % of control

CCN(CC)CCOC(=O)C(S)(c1ccccc1)C1CCCCC1 (stereo not given)
inactive: dose: 75.0 mg/kg/injection, schedule: Q01DX001 (ip), vehicle: other 90 % of control | dose: 150.0 mg/kg/injection, schedule: Q01DX001 (ip), vehicle: other 87 % of control

CC1=C2C(=C[C@@](C)(CO)[C@@H]2O)C(=O)[C@](C)(O)C12CC2
inactive: dose: 75.0 micrograms/kg/injection, schedule: Q01DX Z (ip), vehicle: saline 103 % of control | dose: 150.0 micrograms/kg/injection, schedule: Q01DX Z (ip), vehicle: saline 117 % of control | dose: 300.0 micrograms/kg/injection, schedule: Q01DX Z (ip), vehicle: saline 117 % of control | dose: 600.0 micrograms/kg/injection, schedule: Q01DX Z (ip), vehicle: saline 100 % of control

c1ccc(C2=C([P+](c3ccccc3)(c3ccccc3)c3ccccc3)CCO2)cc1
inactive: dose: 3.0 mg/kg/injection, schedule: Q04DX003 (ip), vehicle: saline 102 % of control | dose: 3.12 mg/kg/injection, schedule: Q01DX009 (ip), vehicle: saline 117 % of control | dose: 6.0 mg/kg/injection, schedule: Q01DX001 (ip), vehicle: saline 108 % of control | dose: 6.0 mg/kg/injection, schedule: Q04DX003 (ip), vehicle: saline 117 % of control | dose: 6.25 mg/kg/injection, schedule: Q01DX009 (ip), vehicle: saline 109 % of control | dose: 12.0 mg/kg/injection, schedule: Q01DX001 (ip), vehicle: saline 108 % of control | dose: 12.0 mg/kg/injection, schedule: Q04DX003 (ip), vehicle: saline 101 % of control and 107 % of control | dose: 12.5 mg/kg/injection, schedule: Q01DX009 (ip), vehicle: saline 92 % of control | dose: 25.0 mg/kg/injection, schedule: Q01DX001 (ip), vehicle: saline 102 % of control

CCOC(=O)/C(C)=N\N(C)C
inactive: [6] 92 % of control | [7] 97 % of control | dose: 200.0 mg/kg/injection, schedule: Q01DX009 (ip), vehicle: saline 92 % of control | [8] 101 % of control | [9] 88 % of control

O=C1NC(=O)C(F)(F)C(O)N1 (stereo not given)
inactive: dose: 45.0 mg/kg/injection, schedule: Q01DX009 (ip), vehicle: saline 117 % of control | dose: 65.0 mg/kg/injection, schedule: Q01DX009 (ip), vehicle: saline 94 % of control | [6] 92 % of control | [7] 108 % of control | dose: 150.0 mg/kg/injection, schedule: Q01DX009 (ip), vehicle: saline 97 % of control | [8] 117 % of control | dose: 220.0 mg/kg/injection, schedule: Q01DX009 (ip), vehicle: saline 90 % of control | [9] 120 % of control

COc1ccc(/C=N/N=C(N)N)cc1S(=O)(=O)O
inactive: dose: 15.0 mg/kg/injection, schedule: Q01DX Z (ip), vehicle: saline 95 % of control | dose: 30.0 mg/kg/injection, schedule: Q01DX Z (ip), vehicle: saline 90 % of control | dose: 60.0 mg/kg/injection, schedule: Q01DX Z (ip), vehicle: saline 88 % of control | dose: 60.0 mg/kg/injection, schedule: Q01DX Z (oral), vehicle: saline 95 % of control | dose: 120.0 mg/kg/injection, schedule: Q01DX Z (ip), vehicle: saline 92 % of control | dose: 120.0 mg/kg/injection, schedule: Q01DX Z (oral), vehicle: saline 97 % of control | dose: 240.0 mg/kg/injection, schedule: Q01DX Z (oral), vehicle: saline 97 % of control | dose: 480.0 mg/kg/injection, schedule: Q01DX Z (oral), vehicle: saline 98 % of control

COc1ccc(OC)c(NC(=S)N/N=C(\C)c2cc(Cl)ccc2O)c1
inactive: dose: 12.5 mg/kg/injection, schedule: Q04DX002 (ip), vehicle: Klucel (hydroxypropylcellulose) (HPC) 102 % of control | [10] 102 % of control | [11] 118 % of control

Nc1ncccn1
inactive: [12] 101 % of control | [13] 93 % of control | [14] 101 % of control

COC1OC2COC(c3ccccc3)OC2C2OC(=S)OC12 (stereo not given)
inactive: [10] 104 % of control | [11] 97 % of control | [1] 102 % of control | dose: 100.0 mg/kg/injection, schedule: Q04DX002 (ip), vehicle: Klucel (hydroxypropylcellulose) (HPC) 104 % of control | dose: 100.0 mg/kg/injection, schedule: Q04DX002 (ip), vehicle: saline 93 % of control | [2] 98 % of control | dose: 200.0 mg/kg/injection, schedule: Q04DX002 (ip), vehicle: saline 100 % of control | [3] 98 % of control | dose: 400.0 mg/kg/injection, schedule: Q04DX002 (ip), vehicle: saline 107 % of control

Cc1ccc(S(=O)(=O)OC[C@H]2CC=CC[C@H]2COS(=O)(=O)c2ccc(C)cc2)cc1
inactive: dose: 75.0 mg/kg/injection, schedule: Q01DX009 (ip), vehicle: saline with Tween-80 91 % of control | dose: 100.0 mg/kg/injection, schedule: Q01DX009 (ip), vehicle: DMSO 95 % of control | dose: 100.0 mg/kg/injection, schedule: Q04DX003 (ip), vehicle: DMSO 86 % of control | [4] 88 % of control | dose: 150.0 mg/kg/injection, schedule: Q01DX009 (ip), vehicle: saline with Tween-80 107 % of control | dose: 200.0 mg/kg/injection, schedule: Q01DX009 (ip), vehicle: DMSO 101 % of control | dose: 200.0 mg/kg/injection, schedule: Q04DX003 (ip), vehicle: DMSO 86 % of control | [5] 86 % of control | dose: 300.0 mg/kg/injection, schedule: Q01DX009 (ip), vehicle: saline with Tween-80 101 % of control | dose: 400.0 mg/kg/injection, schedule: Q04DX003 (ip), vehicle: DMSO 88 % of control

CCCCOC(=S)SCC(=O)O
inactive: dose: 100.0 mg/kg/injection, schedule: Q04DX002 (ip), vehicle: other 103 % of control | dose: 200.0 mg/kg/injection, schedule: Q04DX002 (ip), vehicle: other 106 % of control | dose: 400.0 mg/kg/injection, schedule: Q04DX002 (ip), vehicle: other 94 % of control

O=C(c1ccc([N+](=O)[O-])cc1)c1ccccn1
inactive: dose: 100.0 mg/kg/injection, schedule: Q01DX009 (ip), vehicle: Klucel (hydroxypropylcellulose) (HPC) 103 % of control | [12] 101 % of control | dose: 200.0 mg/kg/injection, schedule: Q01DX009 (ip), vehicle: Klucel (hydroxypropylcellulose) (HPC) 102 % of control | [13] 93 % of control | dose: 400.0 mg/kg/injection, schedule: Q01DX009 (ip), vehicle: Klucel (hydroxypropylcellulose) (HPC) 115 % of control | [14] 92 % of control
